Results reported in patent US20200262869A1, “PEPTIDE ANTIBIOTIC COMPLEXES AND METHODS OF USE THEREOF” (GENENTECH, INC., priority 2017, published 2020).
Values after ≈ are worked out from the molar mass of the structure shown. Read-outs that look alike come from different tables or passages of the source.

Legend:
[1] = system: K. pneumoniae 43816; test: Frequency of resistance (FOR); assay type: cell-based; details: G0775 at 8-fold the MIC; limit of detection 10^−10
Protocol: (§1) 20 independent colonies from each bacterial species were scraped and used to establish an overnight culture. Bacteria were concentrated by centrifugation, and approximately 3×10^9 CFUs were spread on cation adjusted Mueller Hinton agarose (MHA) plates containing G0775 at 2- to 8-times the MIC. The MHA plates were prepared from Mueller Hinton II cation adjusted broth (BBL™ 212322) and SeaKem LE Agarose (17 g/L; Lonza) as per manufactures instructions. Resistance frequency for each strain was calculated by dividing the number of colonies formed after a 48 hour incubation at 37° C. by the initial viable cell count.

[2] = system: E. coli ATCC 25922; test: Frequency of resistance (FOR); assay type: cell-based; details: G0775 at 8-fold the MIC; limit of detection 10^−10
Protocol: as §1

[3] = system: P. aeruginosa PAO1; test: Frequency of resistance (FOR); assay type: cell-based; details: further 2-fold increase over 8-fold the MIC (16-fold MIC)
Protocol: as §1

[4] = system: A. baumannii ATCC 17978; test: Frequency of resistance (FOR); assay type: cell-based; details: G0775 at 8-fold the MIC; limit of detection 10^−10
Protocol: as §1

[5] = system: K. pneumoniae strain ATCC 43816; test: Mucin peritonitis survival study in mice; assay type: in vivo; details: 5 mg/kg BID subcutaneously on day of infection; out to 84 hours
Protocol: CD1 mice (Charles River Laboratories) were infected through intraperitoneal injection of 0.4 mL K. pneumoniae (ATCC 43816) at 3×10^5 CFU/mouse in 5% mucin (Sigma M1778). At 2 and 11 hours post infection, G0775 was given at the indicated dose subcutaneously. Ciprofloxacin (Claris Lifesciences Inc.) was dosed at 80 mg/kg subcutaneously once at 2 hour post infection. Mice were monitored for body conditioning and survival until 84 hours post infection.

[6] = system: E. coli K-12 MG1655 and isogenic matched strains; test: MIC against E. coli K-12 MG1655 and isogenic matched strains; assay type: cell-based; details: for MIC: Escherichia coli
Protocol: (§2) Minimum Inhibitory Concentration (MIC). MICs were determined by performing two-fold serial dilutions of compound in Mueller Hinton II cation-adjusted broth to a final volume of 0.1 m1 in round-bottom 96-well assay plates (Corning Life Sciences No 3788). Each well was inoculated with 5×10^5 CFU/ml and incubated at 37° C. without agitation for 18 hours. Plates were scored by eye, and the lowest compound concentration preventing visible growth was determined to be the MIC.

[7] = system: K. pneumoniae (CDC 0106); test: Neutropenic lung infection model in mice; assay type: in vivo; details: 20 h
Protocol: Balb/c mice (Jackson Laboratories) were rendered neutropenic by 2 intraperitoneal injections of Cytoxan (Baxter Health Care Corporation) at 150 mg/kg on Day −4 and 100 mg/kg on Day −1. On day 0, mice were infected intranasally with 40 ul log-phase grown K. pneumoniae (CDC 0106) at 1×10^6 CFU/mouse. At 2 and 11 hours post infection, G0775 was given at different doses subcutaneously. Ciprofloxacin (Claris Lifesciences Inc.) was dosed at 80 mg/kg subcutaneously once at 2 hour post infection. At 20 hours post infection, CFU was determined in the lung through serial dilutions.

[8] = system: 49 multidrug resistant clinical isolates of E. coli and K. pneumoniae; test: MIC against CDC challenge panel of 49 multidrug resistant clinical isolates; assay type: cell-based; details: CDC challenge set
Protocol: To better assess the ability of G0775 to circumvent specific resistance mechanisms, a single MDR isolate, CDC 0106, was focused on. […] Chromosomal mutations associated with high level quinolone resistance and polymyxin resistance were also identified (FIGS. 10A-10B). Importantly, the elements encoded by CDC 0106 confer resistance to nearly all available antibiotic classes (Table 2).
as §2

[9] = system: E. cloacae ATCC 13407; test: MIC, broth microdilution; assay type: cell-based; details: Enterobacter cloacae, ATCC13407, read-out: MIC
Protocol: as §2

[10] = system: P. aeruginosa ATCC 27853; test: MIC, broth microdilution; assay type: cell-based; details: Pseudomonas aeruginosa, ATCC27853, read-out: MIC
Protocol: as §2

[11] = system: S. marcescens CDC4385-74; test: MIC, broth microdilution; assay type: cell-based; details: Serratia marcescens, CDC438574, read-out: MIC
Protocol: as §2

[12] = system: E. coli ATCC 25922; test: MIC, broth microdilution; assay type: cell-based
Protocol: as §2

[13] = system: C. werkmanii ATCC 51114; test: MIC, broth microdilution; assay type: cell-based; details: Citrobacter werkmanii, ATCC51114, read-out: MIC
Protocol: as §2

[14] = system: E. aerogenes ATCC 13408; test: MIC, broth microdilution; assay type: cell-based; details: Klebsiella aerogenes, ATCC13408, read-out: MIC
Protocol: as §2

[15] = system: K. pneumoniae ATCC 43816; test: MIC, broth microdilution; assay type: cell-based
Protocol: as §2

[16] = system: A. baumannii ATCC 17978; test: MIC, broth microdilution; assay type: cell-based; details: Acinetobacter baumannii, ATCC17978, read-out: MIC
Protocol: as §2

[17] = system: E. coli ATCC 25922 point mutants; test: MIC against spontaneous G0775-resistant point mutants; assay type: cell-based
Protocol: as §2, §1

Compound: Cc1nc(-c2ccc(C(C)(C)C)cc2)ncc1C(=O)NC(CCN)C(=O)N(C)C1C(=O)NC(C)C(=O)NC(C(=O)NCC#N)Cc2ccc(OCCN)c(c2)-c2cc1ccc2OCCN (stereo not shown) [G0775]
- frequency of resistance (FOR) [1]: below the limit of detection
- frequency of resistance (FOR) [2]: below the limit of detection
- frequency of resistance (FOR) [3]: < 10^−10
- frequency of resistance (FOR) [4]: below the limit of detection
- survival (animal viability) [5]: full animal viability
- MIC ([6]; MG1655, read-out: G0775 MIC, MG 1655 - LepB High, increase LepB expression level): 1 µg/mL (≈ 1.12 µM)
- MIC ([6]; MG1655, read-out: G0775 MIC, MG 1655 - LepB Low, reduced LepB expression level): 0.008 µg/mL (≈ 0.00899 µM)
- MIC ([6]; MG1655, read-out: G0775 MIC, MG 1655 LptD4213 (imp), outer-membrane permeable): 0.004 µg/mL (≈ 0.00449 µM)
- MIC ([6]; MG1655, read-out: G0775 MIC, MG1655 WT): 0.125 µg/mL (≈ 0.14 µM)
- MIC ([6]; MG1655, read-out: G0775 MIC, MG1655 WT + 4 mM EDTA, outer-membrane permeable): 0.004 µg/mL
- MIC ([6]; MG1655, read-out: G0775 MIC, MG1655 WT + 1% surfactant, lung inactivation): 0.125 µg/mL
- MIC ([6]; MG1655, read-out: G0775 MIC, MG1655 WT + 50% serum, plasma protein binding): 0.125 µg/mL
- MIC ([6]; MG1655, read-out: G0775 MIC, MG 1655 ΔacrB, efflux null): 0.125 µg/mL (≈ 0.14 µM)
- MIC ([6]; MG1655, read-out: G0775 MIC, MG 1655 ΔompC, ΔompF, doubly porin deficient): 0.125 µg/mL (≈ 0.14 µM)
- MIC ([6]; MG1655, read-out: G0775 MIC, MG 1655 ΔompC, porin deficient): 0.125 µg/mL (≈ 0.14 µM)
- MIC ([6]; MG1655, read-out: G0775 MIC, MG 1655 ΔompF, porin deficient): 0.125 µg/mL (≈ 0.14 µM)
- MIC ([6]; MG1655, read-out: G0775 MIC, MG 1655 ΔtolC, efflux null): 0.125 µg/mL (≈ 0.14 µM)
- increase in potency relative to wild type E. coli ([6]; hyper-permeable E. coli strain (imp4213)): 30 fold
- increase in MIC values ([6]; over-expression of LepB in E. coli K12 MG1655): 8 fold
- decrease in MIC values ([6]; under-expression of LepB in E. coli K12 MG1655): 16 fold
- antibacterial activity in lung infection model ([7]; 2 mg/kg subcutaneously BID): bacteriostatic activity
- antibacterial activity in lung infection model ([7]; 20 mg/kg subcutaneously BID): bactericidal activity
- activity against panel of 49 multidrug resistant clinical isolates (MIC) [8]: maintains its potent activity against all 49 isolates
- MIC [9]: 0.25 µg/mL (≈ 0.281 µM)
- MIC [10]: 4 µg/mL (≈ 4.49 µM)
- MIC [11]: 0.125 µg/mL (≈ 0.14 µM)
- potency relative to arylomycin A-C16 ([12]; E. coli, more potent than arylomycin A-C16): > 500 fold
- MIC ([12]; Escherichia coli, ATCC25922, E. coli ATCC 25922, read-out: MIC): 0.125 µg/mL (≈ 0.14 µM)
- MIC [13]: 0.125 µg/mL (≈ 0.14 µM)
- MIC [14]: 0.125 µg/mL (≈ 0.14 µM)
- potency relative to arylomycin A-C16 ([15]; K. pneumoniae, more potent than arylomycin A-C16): > 500 fold
- MIC ([15]; Klebsiella pneumoniae, ATCC43816, K. pneumoniae ATCC 43816, read-out: MIC): 0.125 µg/mL (≈ 0.14 µM)
- MIC [16]: 1 µg/mL (≈ 1.12 µM)
- Fold MIC Increase ([17]; LepB mutation A297V): 4 Fold
- Fold MIC Increase ([17]; LepB mutation D143Y): 8 Fold
- Fold MIC Increase ([17]; LepB mutation E83K): 16 Fold
- Fold MIC Increase ([17]; LepB mutation F85S): 8 Fold
- Fold MIC Increase ([17]; LepB mutation L142R): 8 Fold
- Fold MIC Increase ([17]; LepB mutation P88L): 16 Fold
- Fold MIC Increase ([17]; LepB mutation P88Q): 4 Fold
- Fold MIC Increase ([17]; LepB mutation P88R): 16 Fold
- Fold MIC Increase ([17]; LepB mutation P88T): 4 Fold
- Fold MIC Increase ([17]; LepB mutation V133F): 16 Fold
- Fold MIC Increase ([17]; LepB mutation V149(VVGLP)): 128 Fold
- Fold MIC Increase ([17]; mutation AcrB (N282Y), off-target): 4 Fold
- reduction of susceptibility to G0775 by resistance mutations ([17]; resistant E. coli mutants): 4- to 16 fold
